How the values were obtained:
Assay in all cases: relative viability (nuclei count vs DMSO), 5 days (fraction); higher = more cells survive
CUDC-101 + Tozasertib = compound: C#Cc1cccc(Nc2ncnc3cc(OC)c(OCCCCCCC(=O)NO)cc23)c1 [CUDC-101] + Cc1cc(Nc2cc(N3CCN(C)CC3)nc(Sc3ccc(NC(=O)C4CC4)cc3)n2)n[nH]1 [Tozasertib] (partner 0.1 µM)
Summary of the method: (§1)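 Lung cancer cell lines were seeded in 1536-well plates and dosed by pin tool the next day, with either a single drug or a fixed anchor-drug dose combined with five library-drug doses (not always all listed) spaced in √10 steps. Five days later, one step fixed the cells and stained their nuclei (final 0.05% Triton X-100, 1% formaldehyde, 1 ug/ml Hoechst), and nuclei were counted on 4× images. Relative viability is the nuclei count in treated wells divided by the count in vehicle wells, and each value is the median of duplicate plates.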

CUDC-101 + OSI-027 = compound: C#Cc1cccc(Nc2ncnc3cc(OC)c(OCCCCCCC(=O)NO)cc23)c1 [CUDC-101] + COc1cccc2cc(-c3nc([C@H]4CC[C@H](C(=O)O)CC4)n4ncnc(N)c34)[nH]c12 [OSI-027] (partner 0.5 µM)
Summary of the method: as §1

Vandetanib + Olaparib = compound: COc1cc2/c(=N/c3ccc(Br)cc3F)nc[nH]c2cc1OCC1CCN(C)CC1 [Vandetanib] + O=C(c1cc(Cc2n[nH]c(=O)c3ccccc23)ccc1F)N1CCN(C(=O)C2CC2)CC1 [Olaparib] (partner 8 µM)
Summary of the method: as §1

CUDC-101 + Foretinib = compound: C#Cc1cccc(Nc2ncnc3cc(OC)c(OCCCCCCC(=O)NO)cc23)c1 [CUDC-101] + COc1cc2c(Oc3ccc(NC(=O)C4(C(=O)Nc5ccc(F)cc5)CC4)cc3F)ccnc2cc1OCCCN1CCOCC1 [Foretinib] (partner 0.25 µM)
Summary of the method: as §1

Cell Line	relative viability (CUDC-101 + Tozasertib; first compound 0.01 µM)	relative viability (CUDC-101 + Tozasertib; first compound 0.03162 µM)	relative viability (CUDC-101 + Tozasertib; first compound 0.1 µM)	relative viability (CUDC-101 + Tozasertib; first compound 0.3162 µM)	relative viability (CUDC-101 + Tozasertib; first compound 1 µM)	relative viability (CUDC-101 + OSI-027; first compound 0.01 µM)	relative viability (CUDC-101 + OSI-027; first compound 0.03162 µM)	relative viability (CUDC-101 + OSI-027; first compound 0.1 µM)	relative viability (CUDC-101 + OSI-027; first compound 0.3162 µM)	relative viability (CUDC-101 + OSI-027; first compound 1 µM)	relative viability (Vandetanib + Olaparib; first compound 0.02 µM)	relative viability (Vandetanib + Olaparib; first compound 0.06325 µM)	relative viability (Vandetanib + Olaparib; first compound 0.6325 µM)	relative viability (Vandetanib + Olaparib; first compound 2 µM)	relative viability (CUDC-101 + Foretinib; first compound 0.01 µM)	relative viability (CUDC-101 + Foretinib; first compound 0.03162 µM)	relative viability (CUDC-101 + Foretinib; first compound 0.1 µM)	relative viability (CUDC-101 + Foretinib; first compound 0.3162 µM)	relative viability (CUDC-101 + Foretinib; first compound 1 µM)	relative viability (Vandetanib + Olaparib; first compound 0.2 µM)
SW 900	0.471	0.633	0.566	0.526	0.519	0.577	0.42	0.562	0.577	0.662	0.804	0.784	0.88	0.815	0.761	0.629	0.738	0.885	0.716	
COR-L 105	0.266	0.353	0.342	0.27	0.311	0.717	0.73	0.399	0.61	0.204	0.639	0.606	0.67	0.811	0.941	0.987	0.951	0.793	0.527	0.756
LOU-NH91	0.703	0.548	0.472	0.411	0.305	0.753	0.633	0.523	0.514	0.443	0.901	0.788	0.732	0.679	0.862	0.634	0.552	0.589	0.584	0.813
COR-L23	0.245	0.202	0.208	0.218	0.159	0.786	0.724	0.792	0.695	0.39	0.327	0.343	0.379	0.347	1.12	0.947	0.924	0.96	0.494	0.379

— the supplement of paper PMC10307832
